Measurements reported in ChEMBL document CHEMBL3039007, “Structure-based identification of OATP1B1/3 inhibitors” (Mol Pharmacol, 2013).

Columns and labels:
[1] = biological target: T1, Solute carrier organic anion transporter family member 1B3 (Homo sapiens, UniProt Q9NPD5); conditions: chinese hamster, cho, 10 µM
T1 sequence (Q9NPD5 whole entry): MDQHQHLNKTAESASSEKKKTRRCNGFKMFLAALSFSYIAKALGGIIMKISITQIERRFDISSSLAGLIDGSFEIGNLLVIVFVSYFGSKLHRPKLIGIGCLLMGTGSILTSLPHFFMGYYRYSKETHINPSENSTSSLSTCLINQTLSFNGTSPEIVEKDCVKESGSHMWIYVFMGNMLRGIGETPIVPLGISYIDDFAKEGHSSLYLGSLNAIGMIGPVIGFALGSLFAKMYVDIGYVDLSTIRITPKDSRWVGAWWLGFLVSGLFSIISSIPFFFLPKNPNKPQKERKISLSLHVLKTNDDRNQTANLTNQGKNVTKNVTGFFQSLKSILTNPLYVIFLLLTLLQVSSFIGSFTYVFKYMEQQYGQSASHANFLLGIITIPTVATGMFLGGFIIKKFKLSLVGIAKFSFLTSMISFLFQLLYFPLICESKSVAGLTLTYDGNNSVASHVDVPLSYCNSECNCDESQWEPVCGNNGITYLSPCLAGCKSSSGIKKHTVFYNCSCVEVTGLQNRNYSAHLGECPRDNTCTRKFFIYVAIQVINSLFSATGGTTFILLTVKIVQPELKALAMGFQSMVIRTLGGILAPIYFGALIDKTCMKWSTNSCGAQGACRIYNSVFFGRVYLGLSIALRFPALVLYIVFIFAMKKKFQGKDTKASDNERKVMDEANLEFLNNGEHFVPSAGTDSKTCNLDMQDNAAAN

[2] = biological target: T2, Solute carrier organic anion transporter family member 1B1 (Homo sapiens, UniProt Q9Y6L6); conditions: chinese hamster, cho, 10 µM
T2 sequence (Q9Y6L6 whole entry): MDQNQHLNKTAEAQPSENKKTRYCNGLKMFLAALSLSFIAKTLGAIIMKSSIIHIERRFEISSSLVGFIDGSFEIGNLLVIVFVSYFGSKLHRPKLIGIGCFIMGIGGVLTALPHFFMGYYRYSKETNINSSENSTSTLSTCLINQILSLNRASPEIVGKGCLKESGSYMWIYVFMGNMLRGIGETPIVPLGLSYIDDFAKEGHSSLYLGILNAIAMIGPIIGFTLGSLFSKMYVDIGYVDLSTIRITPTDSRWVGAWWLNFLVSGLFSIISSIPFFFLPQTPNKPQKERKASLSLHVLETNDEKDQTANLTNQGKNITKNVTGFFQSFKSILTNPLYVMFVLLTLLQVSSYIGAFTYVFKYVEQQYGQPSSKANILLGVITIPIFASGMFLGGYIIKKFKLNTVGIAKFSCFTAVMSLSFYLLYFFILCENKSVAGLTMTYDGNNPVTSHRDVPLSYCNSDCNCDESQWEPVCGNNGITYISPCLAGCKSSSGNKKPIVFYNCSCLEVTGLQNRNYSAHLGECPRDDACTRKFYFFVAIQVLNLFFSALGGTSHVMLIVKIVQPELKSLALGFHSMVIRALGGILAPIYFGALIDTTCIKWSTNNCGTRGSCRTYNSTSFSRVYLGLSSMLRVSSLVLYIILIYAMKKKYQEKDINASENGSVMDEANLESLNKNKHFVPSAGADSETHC

| SMILES | residual activity [1] | residual activity [2] |
| --- | --- | --- |
| CCCCCC(=O)Cc1cc(O)cc(O)c1C(=O)Oc1cc(CC(=O)CCCCC)c(C(=O)O)c(OC)c1 [ARTHONIOIC ACID] | 96.29% | 52.3% |
| O=C(O)Cc1nn(Cc2ccc(Br)cc2F)c(=O)c2ccccc12 [PONALRESTAT] | 83.62% | 139.9% |
| CC[C@@H](C)C(=O)O[C@H]1[C@H](O)[C@H]2[C@@H](CN3C[C@@H](C)CC[C@H]3[C@@]2(C)O)[C@@H]2C[C@]34O[C@]5(O)[C@@H](OC(=O)[C@](C)(O)[C@@H](C)O)CC[C@@]3(C)[C@@H]5[C@@H](OC(C)=O)[C@@H](OC(C)=O)[C@H]4[C@@]21O [PROTOVERATRINE B] | 125.5% | 114.4% |
| COC(=O)[C@@H]1OC(=O)[C@H]2O[C@]23[C@@]2(C)[C@H](CC[C@@]13C)[C@@]1(C)CCC(=O)C(C)(C)[C@@H]1C[C@H]2OC(C)=O | 99.12% | 49.67% |
| CNC(=O)Oc1ccc2c(c1)[C@]1(C)CCN(C)[C@@H]1N2C.CNC(=O)Oc1ccc2c(c1)[C@]1(C)CCN(C)[C@@H]1N2C.O=S(=O)(O)O [PHYSOSTIGMINE SULFATE] | 99.93% | 101.7% |
| COC1=CC(=O)C(O)=C/C1=C\C=C\c1ccccc1 [OBTUSAQUINONE] | 88.38% | 60.32% |
| COc1c(Cl)ccc(Cl)c1C(=O)O [3,6 DICHLOROMETHOXYBENZOIC ACID] | 155.5% | 88.8% |
| CC(=O)O[C@H]1CC[C@]2(C)[C@H]3CC=C4[C@@H]5CC(C)(C)CC[C@]5(C(=O)O)CC[C@@]4(C)[C@]3(C)CC[C@H]2C1(C)C [ACETYL OLEANOLIC ACID] | 24.66% | 37.04% |
| CC(=O)N[C@@H](CC(=O)N[C@@H](CCC(=O)O)C(=O)O)C(=O)O [SPAGLUMIC ACID] | 87.85% | 87.3% |
| CO[C@H]1C[C@H](O[C@H]2CC[C@]3(C=O)[C@H]4CC[C@]5(C)[C@@H](C6=CC(=O)OC6)CC[C@]5(O)[C@@H]4CC[C@]3(O)C2)O[C@H](C)[C@H]1O [CYMARIN] | 87.59% | 87.74% |
| [N-]=[N+]=CC(=O)OC[C@H](N)C(=O)O [AZASERINE] | 107.6% | 100.4% |
| CN1CCN(C(c2ccccc2)c2ccccc2)CC1 [CYCLIZINE] | 103% | 88.13% |
| COc1cc(-c2coc3cc(OCc4ccccc4)c(OC)c(O)c3c2=O)cc(OCc2ccccc2)c1OC [IRIGENIN, DIBENZYL ETHER] | 93.33% | 92.09% |
| CC[N+](C)(C)c1cccc(O)c1.[Cl-] [EDROPHONIUM CHLORIDE] | 93.08% | 79.44% |
| CC1(C)[C@H](O)C[C@H](O)[C@@]2(C)[C@H]3CC[C@]4(C)[C@@H](c5ccoc5)OC(=O)[C@H]5O[C@]54[C@]3(C)[C@H](O)C[C@@H]12 | 84.19% | 48% |
| CC(=O)NO [ACETOHYDROXAMIC ACID] | 100.9% | 91.26% |
| CC(COc1ccccc1)N(CCCl)Cc1ccccc1.Cl (configuration not stated) [PHENOXYBENZAMINE HYDROCHLORIDE] | 88.73% | 101.5% |
| Cc1occc(=O)c1/C=C/O [2-METHYL-3-HYDROXYETHYLENEPYRAN-4-ONE] | 107% | 96.24% |
| CCCCN(CCCC)CCCOC(=O)c1ccc(N)cc1 [BUTACAINE] | 114.4% | 93.87% |
| CN(C)C(=O)Nc1ccc(Cl)c(Cl)c1 [DCMU] | 99% | 105.4% |
| Cl.O=C(O)c1cn(-c2ccc(F)cc2)c2cc(N3CCNCC3)c(F)cc2c1=O [SARAFLOXACIN HYDROCHLORIDE] | 115.6% | 109.6% |

| SMILES | residual activity [1] | residual activity [2] |
| --- | --- | --- |
| CC(C)=CCc1c2c(c3occ(-c4ccc(O)cc4)c(=O)c3c1O)C=CC(C)(C)O2 [OSAJIN] | 88.68% | 112.9% |
| COc1nc(NC(C)C)nc(NC(C)C)n1 [PROMETON] | 102.5% | 114.4% |
| CCC/C=C1\OC(=O)C2=C1CCC=C2 [LIGUSTILIDE] | 107.5% | 117.7% |
| CC(C)=CC1C(CO)C1(C)C (configuration not stated) [CHRYSANTHEMYL ALCOHOL] | 105.2% | 106.8% |
| COP(=O)(NC(C)=O)SC (configuration not stated) [ACEPHATE] | 83.6% | 75.83% |
| COc1ccc(OC)c(C(O)C(C)N)c1.Cl (configuration not stated) [METHOXAMINE HYDROCHLORIDE] | 104.7% | 80.21% |
| C=C[C@H]1CN2CC[C@H]1C[C@H]2[C@H](O)c1ccnc2ccccc12 [CINCHONIDINE] | 111.1% | 86.58% |
| NC(=O)C[S+]([O-])C(c1ccccc1)c1ccccc1 (configuration not stated) [MODAFINIL] | 95.61% | 113.7% |
| CCC(=O)OC1[C@@H]2CC3=C4CC(=O)O[C@@H](c5ccoc5)[C@]4(C)CCC3[C@@](C)(C2=O)[C@@H](CC(=O)OC)C1(C)C (some centres not stated) [KHAYASIN C] | 67.18% | 59.29% |
| CCN(CC)CCNC(=O)c1ccc(N)cc1.Cl [PROCAINAMIDE HYDROCHLORIDE] | 104.4% | 81.68% |
| C=C[C@@](C)(O)CC[C@H]1C(=C)C[C@H](OC(C)=O)[C@H]2C(C)(C)CCC[C@]12C | 80.26% | 81.97% |
| Cc1cccc(N(C)C(=S)Oc2ccc3ccccc3c2)c1 [TOLNAFTATE] | 119% | 126.3% |
| COC(=O)CCC(=O)O[C@H]1CC[C@@]2(C)[C@@H](CC[C@@H]3[C@@H]2C(=O)[C@@H](O)[C@]2(C)C4C(C[C@@H]32)O[C@@]2(CCC(C)CO2)[C@H]4C)C1 (some centres not stated) | 83.53% | 131.1% |
| COc1ccc2c(c1)CC[C@@H]1[C@@H]2CC[C@]2(C)[C@@H](O)[C@H](O)C[C@@H]12 | 103.4% | 76.58% |
| Cn1c(=O)c2c(ncn2CCCl)n(C)c1=O [7-CHLOROETHYLTHEOPHYLLINE] | 97.15% | 90.03% |
| CC(C)[C@@H]1CC[C@@H](C)C[C@H]1OC(=O)c1ccccc1 [MENTHYL BENZOATE] | 101.1% | 100.9% |
| CC1=CC(=O)C2=C(C)CC[C@@H]3[C@H](OC(=O)[C@H]3C)[C@@H]12 [DESACETOXYMATRICARIN] | 118.5% | 129% |
| C=C(C)/C=C1/C=CC(=O)C(C)=C1 [RETUSOQUINONE] | 92.24% | 96.97% |
| CC(C)(O)CC[C@@H](O)[C@](C)(O)[C@H]1CC[C@@]2(O)C3=CC(=O)[C@@H]4C[C@@H](O)[C@@H](O)C[C@]4(C)[C@H]3CC[C@]12C [20-HYDROXYECDYSONE] | 127.1% | 115% |
| CC(C[N+](C)(C)C)OC(N)=O.[Cl-] (configuration not stated) [BETHANECHOL CHLORIDE] | 100% | 111.1% |
